From patent publication US11491120B2, “Pharmacological prophylactics against stress-induced affective disorders in females” (The Trustees of Columbia University in the City of New York, priority 2017, dated 2022)
“Also recorded” adds a separate entry of the source.

Columns and labels:
[1] = test system: female 129S6/SvEv mice; assay: Contextual fear conditioning (CFC), 3-shock, freezing in training and context re-exposure; settings: for Freezing during CFC re-exposure vs saline: vehicle condition; for Freezing during re-exposure to the CFC training context vs saline: single i.p. injection 1 week before 3-shock CFC, all doses; for Freezing during re-exposure to the CFC training context vs saline / Attenuation of learned fear: female mice; for Attenuation of learned fear: single injection 1 week before stressor
[2] = test system: male mice; settings: as previously shown; cited from earlier work
[3] = test system: mice; settings: sub-anesthetic doses; cited from earlier work
[4] = test system: humans; settings: sub-anesthetic doses, cited from earlier work
[5] = test system: female 129S6/SvEv mice; assay: Forced swim test after 10-day chronic immobilization stress (CIS); assay type: in vivo, mouse; settings: 10 mg/kg, 1 week prophylactic drug
Procedure: The CIS procedure induces a depressive-like phenotype in test subjects and has both predictive and face validity (54). Here, we used an adapted protocol from Ramirez et al. (55).
As previously tested in male mice (18), we validated our findings in a model of chronic stress. […] Drug dosages were chosen based on results from FIG. 1 and used for the remainder of the project unless otherwise specified. One week later, a 10-day CIS protocol was administered. Subsequently, mice were tested in the FST.

[6] = Ovariectomized, E2/P4 replacement, 1 week prophylactic drug, Contextual Fear Conditioning Re-exposure, FIG. 10F, Vehicle (hormone) mice, K (10), (2R,6R)-HNK (0.025)
[7] = Ovariectomized, E2/P4 replacement, 1 week prophylactic drug, Contextual Fear Conditioning Training, FIG. 10D, Vehicle vs E2/P4, same drug, K (10), (2R,6R)-HNK (0.025)
[8] = Sal vs. K (2.5), Fisher's PLSD, 3 day prophylactic drug/Contextual Fear Conditioning Training
[9] = Sal vs. K (10), Fisher's PLSD, 1 week prophylactic drug, learned helplessness stress, Contextual Fear Conditioning Re-exposure
[10] = Sal vs. K (10), Fisher's PLSD, 3 day prophylactic drug/Contextual Fear Conditioning Training
[11] = Sal vs. K (10), Fisher's PLSD, Stress, antidepressant drug/Contextual Fear Conditioning Training

Structure (SMILES): CNC1(c2ccccc2Cl)CCCCC1=O (racemic) [(R,S)-ketamine, (RS)-2-(2-chlorophenyl)-2-(methylamino)cyclohexanone]
- p, Freezing Average (min 1-5), Fisher's PLSD, E2/P4 Sal vs E2/P4 drug ([1]; Ovariectomized, E2/P4 replacement, 1 week prophylactic drug, Contextual Fear Conditioning Re-exposure, FIG. 10F, E2/P4 mice, K (10), (2R,6R)-HNK (0.025)): 0.7946
- * (significance), Freezing Average (min 1-5), Fisher's PLSD, Vehicle Sal vs Vehicle drug [1, 6]: ** (** p<0.01)
- p, Freezing Average (min 1-5), Fisher's PLSD, Vehicle Sal vs Vehicle drug [1, 6]: 0.0077
- p, Freezing Average (min 1-5), Fisher's PLSD, Vehicle drug vs E2/P4 drug ([1]; Ovariectomized, E2/P4 replacement, 1 week prophylactic drug, Contextual Fear Conditioning Re-exposure, FIG. 10F, Vehicle vs E2/P4, same drug, K (10), (2R,6R)-HNK (0.025)): 0.2095
- p, Freezing (min 1-5), Fisher's PLSD, E2/P4 Sal vs E2/P4 drug ([1]; Ovariectomized, E2/P4 replacement, 1 week prophylactic drug, Contextual Fear Conditioning Training, FIG. 10D, E2/P4 mice, K (10), (2R,6R)-HNK (0.025)): 0.5725
- p, Freezing (min 1-5), Fisher's PLSD, Vehicle Sal vs Vehicle drug ([1]; Ovariectomized, E2/P4 replacement, 1 week prophylactic drug, Contextual Fear Conditioning Training, FIG. 10D, Vehicle (hormone) mice, K (10), (2R,6R)-HNK (0.025)): 0.1466
- * (significance), Freezing (min 1-5), Fisher's PLSD, Vehicle drug vs E2/P4 drug [1, 7]: ** (** p<0.01)
- p, Freezing (min 1-5), Fisher's PLSD, Vehicle drug vs E2/P4 drug [1, 7]: 0.0004
- *, Freezing (min 5) [1, 8]: * (* p<0.05)
- p, Freezing (min 5) [1, 8]: 0.0143
- *, Freezing (min 1) [1, 9]: * (* p<0.05)
- p, Freezing (min 1) [1, 9]: 0.0166
- *, Freezing (min 5) [1, 10]: ** (** p<0.01)
- p, Freezing (min 5) [1, 10]: 0.0078
- p, Freezing (min 1-5) [1, 11]: 0.1932
- p, Freezing (min 5) [1, 11]: 0.2639
- p, Freezing (min 5) ([1]; Sal vs. K (30), Fisher's PLSD, 3 day prophylactic drug/Contextual Fear Conditioning Training): 0.0606
- Freezing during CFC Training, E2/P4+drug vs vehicle+drug ([1]; ovariectomized mice, hormone replacement): froze significantly more
- Freezing during CFC re-exposure vs saline ([1]; ovariectomized mice): displayed altered freezing
- Freezing during CFC re-exposure vs saline ([1]; ovariectomized mice, listed as (R, S)-ketamine): froze significantly less than saline mice
- Freezing during re-exposure to the CFC training context vs saline ([1]; listed as (R, S)-ketamine): did not alter fear encoding or fear retrieval; also recorded: did not alter overall freezing
- Freezing during re-exposure to the CFC training context vs saline ([1]; listed as Racemic ketamine): do not significantly alter freezing
- Attenuation of learned fear [1]: do not attenuate learned fear
- Attenuation of learned fear ([1]; listed as (R, S)-ketamine): do not attenuate learned fear; also recorded: do not alter learned fear
- Prophylactically effective dose in males [2]: 30 mg/kg
- Antidepressant onset [3]: 30 min
- Antidepressant onset ([4]; humans): 2 h
- Duration of antidepressant effect [4]: up to 2 weeks
- * (significance), Sal vs. drug, Fisher's PLSD: Immobility Time (min 2), Forced Swim Test Day 2 [5]: * (* p<0.05)
- * (significance), Sal vs. drug, Fisher's PLSD: Immobility Time (min 5), Forced Swim Test Day 2 [5]: ** (** p<0.01)
- * (significance), Sal vs. drug, Fisher's PLSD: Immobility Time (min 6), Forced Swim Test Day 1 [5]: ** (** p<0.01)
- * (significance), Sal vs. drug, Fisher's PLSD: Immobility Time (min 6), Forced Swim Test Day 2 [5]: ** (** p<0.01)
- * (significance), Sal vs. drug, Fisher's PLSD: Immobility Time Average (min 3-6), Forced Swim Test Day 2 [5]: ** (** p<0.01)
- p, Sal vs. drug, Fisher's PLSD: Immobility Time (min 1), Forced Swim Test Day 1 [5]: 0.1619
- p, Sal vs. drug, Fisher's PLSD: Immobility Time (min 1), Forced Swim Test Day 2 [5]: 0.0533
- p, Sal vs. drug, Fisher's PLSD: Immobility Time (min 2), Forced Swim Test Day 1 [5]: 0.4051
- p, Sal vs. drug, Fisher's PLSD: Immobility Time (min 2), Forced Swim Test Day 2 [5]: 0.0325
- p, Sal vs. drug, Fisher's PLSD: Immobility Time (min 3), Forced Swim Test Day 1 [5]: 0.5575
- p, Sal vs. drug, Fisher's PLSD: Immobility Time (min 4), Forced Swim Test Day 1 [5]: 0.4015
- p, Sal vs. drug, Fisher's PLSD: Immobility Time (min 5), Forced Swim Test Day 1 [5]: 0.4985
- p, Sal vs. drug, Fisher's PLSD: Immobility Time (min 5), Forced Swim Test Day 2 [5]: 0.0011
- p, Sal vs. drug, Fisher's PLSD: Immobility Time (min 6), Forced Swim Test Day 1 [5]: 0.0022
- p, Sal vs. drug, Fisher's PLSD: Immobility Time (min 6), Forced Swim Test Day 2 [5]: 0.0006
- p, Sal vs. drug, Fisher's PLSD: Immobility Time Average (min 3-6), Forced Swim Test Day 2 [5]: 0.0005
- p, Sal vs. drug, Fishers PLSD: Immobility Time Average (min 1-6), Forced Swim Test Day 1 [5]: 0.1873
